Experimental data from US6818639B2, “Pharmaceutical combination formulation and method of treatment with the combination” (Biovitrum AB, priority 2000, dated 2004).
Where two headings read alike, the source gives them in different places.

Key:
ob/ob mice = experiment: Food intake test in ob/ob mice; format: in vivo
Procedure: 5-HT2C receptor agonists (2R)-methyl-1-{3-[2-(3-pyridinyloxy)ethoxy]-2-pyrazinyl}piperazine, fumarate (“PNU-183933F”) and (2R)-1-(3-{2-[(2-ethoxy-3-pyridinyl)oxy]ethoxy}-2-pyrazinyl)-2-methylpiperazine, fumarate (“BVT.2938F”) were dissolved in saline (0.9% NaCl) and diluted in the same vehicle to the appropriate concentration.
5-HT6 receptor antagonists 6-methyl-9-(phenylsulfonyl)-1,2,3,4,5,6-hexahydroazepino[4,5-b]indole, hydrochloride (“PNU-186053A”) and 1-(phenylsulfonyl)-4-(1-piperazinyl)-1H-indole, hydrochloride (5-HT6 receptor antagonist (“BVT.5182C”) were dissolved and diluted in 25% cyclodextrin.
Male mice 8-9 weeks old (C57BL/6JBom-Lep^ob (ob/ob), Bomholtsgaard, Denmark) with an average body weight of 45 g were used. The animals were housed singly in cages at 23±1° C., 40-60% humidity and had free access to water and standard laboratory chow. The 12/12 h light/dark cycle was set to lights off at 5 p.m. The animals were conditioned for at least one week before start of study. During experimental sessions, the animals obtained special chow (BioServ, Frenchtown, N.J., USA dust-free precision pellets weighing 20 mg each).
At the start of the study the animals were transferred to special cages “operant test cages” (Habitest Modular Animal Behavior Test System; Colbourn Instr, Allentown, Pa., USA). These cages consist of a feeder trough with sensors for measurement of food intake, an optic lickometer for registration of water intake and an infrared-based monitor for recording overall general motor activity. The monitors are coupled to a computer, which controls and monitor events continuously. Food pellets were weighed to the amount needed for one whole study and water bottles were filled with fresh tap water and weighed. The animals were conditioned to their new environment for three days to establish baseline values. The animals were weighed at 3 p.m. at the start and at the end of the study. The compounds were administered between 4.20 and 5.00 p.m. before dark onset. Three groups of animals received (i) 5-HT6 antagonist in 25% cyclodextrin; (ii) 5-HT2C agonist in saline; and (iii) the combination 5-HT2C agonist/5-HT6 antagonist, respectively. When combined, 5-HT6 antagonist or saline was administered 30 min before administration of the 5-HT2C agonist or 25% cyclodextrin. A fourth group received respectively vehicle administered in the same way. The study ended on the fifth day. Weighing was performed with a computer-assisted Mettler-Toledo PR5002/PR802 balance.
Each dose group consisted of 12-16 animals. […] The values were expressed as % of basal food intake (mean±SEM) for the difference between food intake before treatment and 3 h (5 pm-8 pm), 6 h (5 pm-11 pm), 12 h (5 pm-5 am), 21 h (5 pm-2 pm).

humans = details: cited from earlier work
[1] = tested on: mice that express the normal 5-HT2C receptor / mutated inactive form; details: cited from earlier work
[2] = combination BVT.2938F 5 mg/kg subcutaneously + BVT.5182C 3 mg/kg subcutaneously, at 12 and 21 hours following administration, FIG. 2
[3] = combination PNU-186053A 50 mg/kg subcutaneously + PNU-183933F 50 mg/kg per orally, FIG. 1

SMILES | food consumption (food intake), combined treatment vs compounds given alone (ob/ob mice; [2]) | food consumption (food intake), combined treatment vs compounds given alone (ob/ob mice; [3]) | further results
CCOc1ncccc1OCCOc1nccnc1N1CCNC[C@H]1C.O=C(O)/C=C/C(=O)O [BVT.2938F, (2R)-1-(3-{2-[(2-ethoxy-3-pyridinyl)oxy]ethoxy}-2-pyrazinyl)-2-methylpiperazine, fumarate] | significantly more than the compounds given alone | – | –
Cl.O=S(=O)(c1ccccc1)n1ccc2c(N3CCNCC3)cccc21 [BVT.5182C, 1-(phenylsulfonyl)-4-(1-piperazinyl)-1H-indole, hydrochloride] | significantly more than the compounds given alone | – | –
C[C@@H]1CNCCN1c1nccnc1OCCOc1cccnc1.O=C(O)/C=C/C(=O)O [PNU-183933F, (2R)-methyl-1-{3-[2-(3-pyridinyloxy)ethoxy]-2-pyrazinyl}piperazine, fumarate] | – | decreased food consumption significantly more than the compounds given alone | –
Cl.Cn1c2c(c3cc(S(=O)(=O)c4ccccc4)ccc31)CCNCC2 [PNU-186053A, 6-methyl-9-(phenylsulfonyl)-1,2,3,4,5,6-hexahydroazepino[4,5-b]indole, hydrochloride] | – | decreased food consumption significantly more than the compounds given alone | –
Cn1c2c(c3ccccc31)CCNCC2 [U-22394A] | – | – | body weight (humans; nine weeks of treatment): reduce body weight
Clc1cccc(N2CCNCC2)c1 [m-CPP, m-chlorophenylpiperazine] | – | – | food intake ([1]; mice expressing the mutated inactive form of the 5-HT2C receptor): lacks activity; food intake ([1]; mice that express the normal 5-HT2C receptor): reduces food intake; body weight (humans; two weeks of treatment): reduce body weight
